Among the test systems are EKVX NSCLC; HCT-116 colon; HCT-15 colon; LOX IMVI melanoma; MDA-MB-231 breast; OVCAR-3 ovarian; OVCAR-8 ovarian; SF-295 CNS; SK-OV-3 ovarian; UO-31 renal.
Experiment in all cases: NCI anticancer screen, dose series, 48 h

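A five-concentration, 48-hour dose response in 96-well plates underlies each endpoint, interpolated linearly between surrounding concentrations. Here, GI50 denotes the concentration required for 50% inhibition of growth. The concentration for full growth arrest is given as TGI.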 Where only a bound is given, the exact number is not on record here.

For the compound `CC12CCC(=O)C(O1)C1C(=O)c3ccc4c(ccc5ccccc54)c3C(=O)C12` (stereo not given), the GI50 in the assay with EKVX NSCLC was 8.47 µM; with HCT-116 colon, 3.03 µM; in the assay with HCT-15 colon, 14.2 µM; in the assay on LOX IMVI melanoma, 0.477 µM; in the assay on MDA-MB-231 breast, 2.14 µM; with OVCAR-3 ovarian it was 1.2 µM. Further, the GI50 is 4.27 µM with OVCAR-8 ovarian, 1.46 µM in the assay on SF-295 CNS, 11.5 µM with SK-OV-3 ovarian and 6.69 µM with UO-31 renal. Moreover, the TGI was 19 µM in the assay on EKVX NSCLC; 4.71 µM with HCT-116 colon; 30.6 µM with HCT-15 colon; 3.57 µM in the assay on LOX IMVI melanoma; 6.64 µM in the assay on MDA-MB-231 breast; 2.64 µM with OVCAR-3 ovarian. For the same compound, the figures for the TGI in the assay on OVCAR-8 ovarian, in the assay on SF-295 CNS and with SK-OV-3 ovarian were 12.7 µM, 3 µM and above 39.1 µM, respectively.

Regarding `COc1cc(C)cc(C(=O)/C=C/c2ccccc2)c1O`, the TGI with EKVX NSCLC worked out at 47.8 µM; in the assay with HCT-116 colon, 34.9 µM; in the assay with HCT-15 colon, 40.9 µM; with LOX IMVI melanoma, 34.8 µM; in the assay on MDA-MB-231 breast, 47.9 µM; in the assay on OVCAR-3 ovarian it was 47.8 µM. The TGI worked out at 40 µM in the assay on OVCAR-8 ovarian, 39.4 µM in the assay with SF-295 CNS, 83.5 µM in the assay on SK-OV-3 ovarian and 32.4 µM with UO-31 renal.

With `CN1CCN(CCCOc2ccc3nc(Nc4ccc(F)c(F)c4)ccc3c2)CC1`, the GI50 in the assay on EKVX NSCLC is 3.17 µM; in the assay with HCT-116 colon, 1.49 µM; in the assay with HCT-15 colon, 1.29 µM; in the assay on LOX IMVI melanoma, 1.53 µM; in the assay with MDA-MB-231 breast, 1.63 µM; in the assay with OVCAR-3 ovarian it was 2.11 µM. Further, the GI50 in the assay on OVCAR-8 ovarian is 3.6 µM; with SF-295 CNS it was 1.61 µM; in the assay with SK-OV-3 ovarian, 2.59 µM; in the assay on UO-31 renal, 1.68 µM. Also, the TGI in the assay with EKVX NSCLC was 13.1 µM; with HCT-116 colon, 3.17 µM; with HCT-15 colon it was 3.33 µM; in the assay on LOX IMVI melanoma, 3.09 µM; in the assay with MDA-MB-231 breast, 3.57 µM; in the assay with OVCAR-3 ovarian it was 6.37 µM. For the same compound, the TGI in the assay with OVCAR-8 ovarian stood at 12.5 µM; in the assay on SF-295 CNS it was 3.65 µM; with SK-OV-3 ovarian, 6.9 µM; in the assay on UO-31 renal, 3.43 µM.

Take `Cc1nc(NS(=O)(=O)c2ccc(NCN3C(=O)c4ccccc4C3=O)cc2)oc1C`: the GI50 in the assay on EKVX NSCLC, with HCT-116 colon, in the assay on HCT-15 colon, in the assay on LOX IMVI melanoma, in the assay on MDA-MB-231 breast and in the assay with OVCAR-3 ovarian was above 100 µM throughout. Moreover, the GI50 in the assay with OVCAR-8 ovarian, in the assay on SF-295 CNS, in the assay on SK-OV-3 ovarian and with UO-31 renal was above 100 µM in each case. The TGI in the assay with EKVX NSCLC, in the assay with HCT-116 colon, in the assay on HCT-15 colon, in the assay on LOX IMVI melanoma, in the assay on MDA-MB-231 breast and in the assay on OVCAR-3 ovarian was above 100 µM in each case. For the same compound, the TGI in the assay with OVCAR-8 ovarian, with SF-295 CNS, in the assay on SK-OV-3 ovarian and in the assay on UO-31 renal was above 100 µM in each case.

For the compound `Fc1ccc2c(c1)C1=C(CCC2)C(c2ccc(Cl)cc2)NC(=S)N1` (stereo not given), the GI50 in the assay with EKVX NSCLC is 32.8 µM; in the assay on HCT-116 colon, 26.1 µM; with HCT-15 colon, 26.2 µM; with LOX IMVI melanoma, 36 µM; in the assay with MDA-MB-231 breast it was 24.2 µM; in the assay on OVCAR-3 ovarian, 27.8 µM. The GI50 in the assay on OVCAR-8 ovarian was 25.8 µM; with SF-295 CNS, 47 µM; with SK-OV-3 ovarian, above 100 µM; with UO-31 renal, 16.9 µM. Besides, the TGI with EKVX NSCLC, in the assay with HCT-116 colon, in the assay with HCT-15 colon, with LOX IMVI melanoma, in the assay on MDA-MB-231 breast and with OVCAR-3 ovarian was above 100 µM throughout. The TGI in the assay with OVCAR-8 ovarian, in the assay with SF-295 CNS, in the assay with SK-OV-3 ovarian and in the assay on UO-31 renal was above 100 µM throughout.

`CC(=O)c1c[nH]c2ccc(-c3ccnc(Nc4ccc(NC(=O)C5CCCC5)c(CN5CCOCC5)c4)n3)cc12`: the GI50 with EKVX NSCLC was 0.0382 µM; in the assay with HCT-116 colon it was 0.0138 µM; with HCT-15 colon it was 0.0558 µM; in the assay with LOX IMVI melanoma, 0.0132 µM; in the assay with MDA-MB-231 breast, 0.0315 µM; with OVCAR-3 ovarian it was 0.0267 µM. Moreover, the GI50 with OVCAR-8 ovarian is 0.0362 µM; with SF-295 CNS, 0.0397 µM; with SK-OV-3 ovarian, 0.0454 µM; in the assay on UO-31 renal it was 0.0273 µM. Further, the TGI with EKVX NSCLC was found to be 0.457 µM; in the assay with HCT-116 colon, 0.953 µM; with HCT-15 colon it was 0.758 µM; in the assay with LOX IMVI melanoma it was 0.0479 µM; with MDA-MB-231 breast it was 0.294 µM; in the assay on OVCAR-3 ovarian, 0.678 µM. Besides, the TGI in the assay with OVCAR-8 ovarian is above 100 µM; in the assay with SF-295 CNS, 0.611 µM; in the assay on SK-OV-3 ovarian it was above 100 µM; with UO-31 renal it was 0.108 µM.

For `O=C1CC(c2cccc(Cl)c2)Oc2ccccc21` (stereo not given), the TGI is 43.7 µM in the assay with EKVX NSCLC; 31.3 µM in the assay on HCT-116 colon; 49 µM with HCT-15 colon; 56.5 µM in the assay on LOX IMVI melanoma; above 100 µM in the assay on MDA-MB-231 breast; 53.8 µM in the assay on OVCAR-8 ovarian. For the same compound, the TGI in the assay with SF-295 CNS is 53.6 µM; in the assay on SK-OV-3 ovarian, 46 µM; with UO-31 renal, 27.6 µM.

For the compound `N#CC1=C(N)NC(N2CCOCC2)=NC12Nc1ccccc1O2` (stereo not given), the GI50 in the assay with EKVX NSCLC is above 100 µM; in the assay with HCT-15 colon, 38.2 µM; in the assay on LOX IMVI melanoma it was 23.7 µM; in the assay on MDA-MB-231 breast, 89.9 µM; in the assay on OVCAR-3 ovarian, 25.1 µM; in the assay on OVCAR-8 ovarian it was 80.6 µM. For the same compound, the GI50 with SF-295 CNS is 38.5 µM; with SK-OV-3 ovarian it was above 100 µM; with UO-31 renal, 31.9 µM. Besides, the TGI in the assay with EKVX NSCLC was above 100 µM; in the assay with HCT-15 colon it was above 100 µM; in the assay on LOX IMVI melanoma it was 81 µM; in the assay with MDA-MB-231 breast it was above 100 µM; in the assay with OVCAR-3 ovarian, 84.8 µM; in the assay with OVCAR-8 ovarian, above 100 µM. Besides, the TGI in the assay on SF-295 CNS, in the assay on SK-OV-3 ovarian and in the assay on UO-31 renal was above 100 µM in each case.

As to `C=C(C)[C@@H]1CCc2c(O)c(O)c(=O)cc(C)c2C1`, the TGI was above 100 µM with EKVX NSCLC; above 100 µM in the assay on HCT-116 colon; above 100 µM with HCT-15 colon; above 100 µM with LOX IMVI melanoma; above 100 µM in the assay with MDA-MB-231 breast; 22.3 µM in the assay on OVCAR-8 ovarian. Further, the TGI in the assay with SF-295 CNS was above 100 µM; in the assay on SK-OV-3 ovarian, above 100 µM; in the assay with UO-31 renal, above 25.5 µM.

The values above are taken from PubChem BioAssay (NCI).
